In article PMC10026764, “Overcoming the imatinib-resistant BCR-ABL mutants with new ureidobenzothiazole chemotypes endowed with potent and broad-spectrum anticancer activity” (Journal of Enzyme Inhibition and Medicinal Chemistry, 2023) one finds GI50 and IC50 data, which are given here for three compounds.

As a reminder, the GI50 is the concentration giving 50% growth inhibition. The pIC50 is −log10 of the IC50, conventionally taken in molar units.

pIC50: −log10 of the molar value.

One test relates to EKVX. Put plainly: NCI-60 five-dose SRB assay. In kind it is cell-based. The conditions noted are these: Homo sapiens, non-small cell lung cancer. A general note: In SRB staining, fixed cells bind dye roughly in proportion to their protein.
For a further test, the target named is ABL^E255K (Homo sapiens, UniProt P00519, E255K). In words: In vitro enzymatic activity, imatinib-resistant mutant panel.
ABL^E255K, sequence (P00519 whole entry E255K): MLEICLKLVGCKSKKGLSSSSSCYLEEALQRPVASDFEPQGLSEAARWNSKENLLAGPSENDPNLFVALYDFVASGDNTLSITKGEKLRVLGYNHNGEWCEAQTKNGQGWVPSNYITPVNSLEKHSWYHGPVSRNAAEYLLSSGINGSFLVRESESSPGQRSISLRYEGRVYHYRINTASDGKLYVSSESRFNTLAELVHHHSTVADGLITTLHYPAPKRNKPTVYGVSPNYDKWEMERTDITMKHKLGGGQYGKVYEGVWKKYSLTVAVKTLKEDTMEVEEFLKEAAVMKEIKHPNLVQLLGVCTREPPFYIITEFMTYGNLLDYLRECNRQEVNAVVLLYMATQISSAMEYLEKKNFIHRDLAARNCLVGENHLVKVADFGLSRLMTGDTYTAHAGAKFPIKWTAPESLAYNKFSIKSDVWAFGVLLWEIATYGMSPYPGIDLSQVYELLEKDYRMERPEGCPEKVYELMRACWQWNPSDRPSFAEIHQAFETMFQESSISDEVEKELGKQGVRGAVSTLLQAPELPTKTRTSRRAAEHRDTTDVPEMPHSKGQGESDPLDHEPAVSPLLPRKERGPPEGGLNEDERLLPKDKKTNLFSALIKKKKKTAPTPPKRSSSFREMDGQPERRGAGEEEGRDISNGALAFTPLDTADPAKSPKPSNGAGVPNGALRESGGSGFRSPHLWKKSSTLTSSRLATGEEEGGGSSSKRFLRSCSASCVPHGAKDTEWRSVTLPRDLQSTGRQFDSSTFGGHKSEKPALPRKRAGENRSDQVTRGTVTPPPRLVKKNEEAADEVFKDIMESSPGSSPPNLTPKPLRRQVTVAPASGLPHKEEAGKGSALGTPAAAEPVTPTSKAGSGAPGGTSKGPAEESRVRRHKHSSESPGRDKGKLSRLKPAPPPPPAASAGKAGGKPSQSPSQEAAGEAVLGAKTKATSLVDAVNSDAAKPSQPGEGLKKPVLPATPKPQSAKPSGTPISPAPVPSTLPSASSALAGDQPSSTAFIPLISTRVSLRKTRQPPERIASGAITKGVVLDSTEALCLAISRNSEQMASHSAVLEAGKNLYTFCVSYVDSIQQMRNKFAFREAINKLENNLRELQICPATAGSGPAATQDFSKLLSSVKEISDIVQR
Another test concerns HOP-62. In words: NCI-60 five-dose SRB assay. Format: cell-based. The conditions noted are these: Homo sapiens; HOP-62, non-small cell lung cancer.
Another test deals with SR. Details: method as in earlier work. As to conditions: imatinib mesylate NSC 743414, NCI data; cited from earlier work.
A further test concerns COLO 205. Set-up: method as in earlier work. As to conditions: imatinib mesylate NSC 743414, NCI data; cited from earlier work.
The next test concerns SK-MEL-2. Set-up: method as in earlier work. The conditions noted are these: imatinib mesylate NSC 743414, NCI data; cited from earlier work.
In another test the test system is IGROV1. Details: method as in earlier work. The conditions noted are these: imatinib mesylate NSC 743414, NCI data; cited from earlier work.
A further test deals with OVCAR-5. Details: method as in earlier work. As to conditions: imatinib mesylate NSC 743414, NCI data; cited from earlier work.
A further test relates to BT-549. Details: method as in earlier work. The conditions noted are these: imatinib mesylate NSC 743414, NCI data; cited from earlier work.

Turning to `CCN1CCN(c2ccc(NC(=O)Nc3nc4ccc(-c5ccccc5OC)cc4s3)cc2)CC1` [Compound 2b], in the test with EKVX, halving of growth (GI50) required 1.51 µM. This compound gave a pIC50 at ABL^E255K of 8.61.
Turning to `COc1ccccc1-c1ccc2nc(NC(=O)Nc3cc(C(F)(F)F)cc(C(F)(F)F)c3)sc2c1` [Compound 2e], in the test with HOP-62, it took 2.1 µM to inhibit growth by half (GI50).
In the case of `Cc1ccc(NC(=O)c2ccc(CN3CCN(C)CC3)cc2)cc1Nc1nccc(-c2cccnc2)n1` [Imatinib], the GI50 with SR is 7.14 µM; in the test with COLO 205 it was 17.6 µM; with SK-MEL-2, 25 µM; in the test with IGROV1, 21.2 µM; in the test with OVCAR-5, 0.58 µM; in the test with BT-549 it was 16.1 µM.
